For one assay, the system named is Ustilago maydis (USTIMA). Briefly: microbe, parasite or virus in culture. Type of assay: cell-based. To be noted: Mycosarcoma maydis, read-out: USTIMA in vitro Growth Inhibition.
Assay [1] relates to Phytophthora infestans—PHYTIN. Briefly: whole plant or invertebrate. Type of assay: in vivo. To be noted: Phytophthora, in Solanum lycopersicum, 24 h, read-out: PHYTIN in vivo 1 Day Protectant.
The subject of assay [2] is Puccinia recondita—PUCCRT. Briefly: Brown Rust of Wheat, in vivo whole plant, 24 Hour Protectant. To be noted: for pest or weed control at 100 ppm: Puccinia, control of fungal infection vs untreated plants, read-out: PUCCRT in vivo 1 Day Protectant; for PUCCRT in vivo 1 Day Protectant: % control of fungal infection vs untreated plants.
Assay [3] relates to Rhizoctonia solani (RHIZSO). The assay is described as follows: microbe, parasite or virus in culture. Type of assay: cell-based. To be noted: Rhizoctonia solani, read-out: RHIZSO in vitro Growth Inhibition.
The subject of assay [4] is Mycosphaerella graminicola (Septoria tritici—SEPTTR). The assay is described as follows: In vitro fungal growth inhibition, Mycosphaerella graminicola (SEPTTR). Type of assay: cell-based. To be noted: Zymoseptoria tritici, read-out: SEPTTR in vitro Growth Inhibition.
Assay [5] deals with Stagonospora nodorum (Leptosphaeria nodorum—LEPTNO). Briefly: In vitro fungal growth inhibition, Stagonospora nodorum (LEPTNO). Type of assay: cell-based. To be noted: Leptosphaeria, read-out: LEPTNO in vitro Growth Inhibition.
The subject of a further assay is Erysiphe graminis—ERYSGT. Briefly: Powdery Mildew of Wheat, in vivo whole plant, 24 Hour Protectant. To be noted: for pest or weed control at 100 ppm: Erysiphe, read-out: ERYSGT in vivo 1 Day Protectant.
The subject of assay [6] is Phytophthora infestans (PHYTIN). Briefly: microbe, parasite or virus in culture. Type of assay: cell-based. To be noted: Phytophthora infestans, read-out: PHYTIN in vitro Growth Inhibition.
The subject of another assay is Septoria tritici—SEPTTR. Briefly: Leaf Blotch of Wheat, in vivo whole plant, 24 Hour Protectant. To be noted: for pest or weed control at 100 ppm: Zymoseptoria tritici, 24 h, control of fungal infection vs untreated plants, read-out: SEPTTR in vivo 1 Day Protectant; for SEPTTR in vivo 1 Day Protectant: % control of fungal infection vs untreated plants.
For assay [7], the system named is Leptosphaeria nodorum—LEPTNO. The assay is described as follows: Glume Blotch of Wheat, in vivo whole plant, 24 Hour Protectant. To be noted: for pest or weed control at 100 ppm: Leptosphaeria, read-out: LEPTNO in vivo 1 Day Protectant.
The test system of assay [8] is Magnaporthe grisea (Pyricularia oryzae—PYRIOR). Briefly: microbe, parasite or virus in culture. To be noted: Pyricularia oryzae, read-out: PYRIOR in vitro Growth Inhibition. Type of assay: cell-based.
Setting [9] is: 100 ppm spray, 24 hour protectant, wheat.
Setting [10] is: 100 ppm spray, 24 hour protectant, wheat, control of fungal infection vs untreated plants.
The mark [11] stands for this setting: wheat plants sprayed at 100 ppm, inoculated after 24 hours.
The mark [12] stands for this setting: wheat plants sprayed at 100 ppm, inoculated after 24 hours, control of fungal infection vs untreated plants.
Setting [13] is: 100 ppm spray, wheat, 24 hour protectant.
Setting [14] is: 100 ppm spray, wheat, 24 hour protectant, control of fungal infection vs untreated plants.
[15] abbreviates: 100 ppm spray, wheat, 24 hour protectant, % control of fungal infection vs untreated plants.

Where two headings read alike, the source gives them in different places.

Usually inhibition stands for the percentage by which the read-out fell short of the control.

For the molecule `O=C(N[C@H]1CC2CC1[C@@H]1CCC[C@H]21)c1ncccc1O` (stereo partly drawn) [Compound 206], the inhibition at 25 ppm with Ustilago maydis (USTIMA) was below 80%; in assay [3], above 80%; in [4] (25 ppm in growth medium), above 80%; in [5] (25 ppm in growth medium), above 80%; in assay [6], below 80%; in [8] it was above 80%. Besides, the pest or weed control at 100 ppm (in [1]; in [2] (setting [9]); in the assay on Erysiphe graminis—ERYSGT (setting [10]); in the assay with Septoria tritici—SEPTTR (setting [9]); in assay [7] (setting [10])) was below 25% each time.
As for `COCCCc1ccc2c(c1)OC(C)C(NC(=O)c1nccc(OC)c1O)C2=O` (stereo not drawn) [Compound 322], the inhibition at 25 ppm with Ustilago maydis (USTIMA) is below 80%; in assay [3], above 80%; in [4] (25 ppm in growth medium) it was below 80%; in [5] (25 ppm in growth medium), above 80%; in [6] it was below 80%; in assay [8], below 80%. The pest or weed control at 100 ppm was below 25% in assay [1]; 25 to 74% in assay [2] (setting [9]); 25 to 74% in the assay on Erysiphe graminis—ERYSGT (setting [10]); 25 to 74% with Septoria tritici—SEPTTR (setting [9]); 25 to 74% in assay [7] (setting [10]).
Turning to `CSc1nnc(C(=O)N[C@H]2COC(=O)[C@H](Cc3ccccc3)[C@@H](OC(=O)C(C)C)[C@H](C)OC2=O)c(O)n1` [Compound 547], the inhibition at 25 ppm with Ustilago maydis (USTIMA) is below 80%; in assay [3], below 80%; in [4] (25 ppm in the growth medium) it was below 80%; in assay [5] (25 ppm in the growth medium), below 80%; in assay [6], above 80%; in assay [8], below 80%. Moreover, the pest or weed control at 100 ppm was 25 to 74% in assay [1]; 25 to 74% in assay [2] (setting [11]); below 25% with Erysiphe graminis—ERYSGT (setting [12]); 25 to 74% with Septoria tritici—SEPTTR (setting [11]); below 25% in assay [7] (setting [12]).
Take `COc1cccc(Oc2ccc(NC(=O)c3nccc(OC)c3O)cc2)c1` [Compound 434]: the inhibition at 25 ppm in the assay on Ustilago maydis (USTIMA) was below 80%; in assay [3], below 80%; in [4] (25 ppm in growth medium), above 80%; in assay [5] (25 ppm in growth medium), above 80%; in [6], below 80%; in assay [8] it was below 80%. Besides, the pest or weed control at 100 ppm was below 25% in assay [1]; below 25% in assay [2] (setting [13]); 25 to 74% in the assay on Erysiphe graminis—ERYSGT (setting [14]); below 25% in the assay on Septoria tritici—SEPTTR (setting [13]); 25 to 74% in [7] (setting [14]).
Turning to `COc1ccnc(C(=O)NC2COC3(CC(C)(C)CC(C)(C)C3)OC2)c1O` [Compound 315], the inhibition at 25 ppm (in the assay on Ustilago maydis (USTIMA); in [3]; in assay [4] (25 ppm in growth medium); in assay [5] (25 ppm in growth medium); in assay [6]; in [8]) was below 80% throughout. Besides, the pest or weed control at 100 ppm in [1] is below 25%; in [2] (setting [9]), below 25%; with Erysiphe graminis—ERYSGT (setting [10]), below 25%; with Septoria tritici—SEPTTR (setting [9]), below 25%; in [7] (setting [10]), 25 to 74%.
Regarding `COc1ccnc(C(=O)N[C@H]2COC(=O)[C@H](Cc3ccccc3)[C@@H](OC(=O)C(C)C)[C@H](C)OC2=O)c1OC(=O)c1ccc(F)c(F)c1` [Compound 639], the inhibition at 25 ppm with Ustilago maydis (USTIMA) is below 80%; in assay [3], below 80%; in assay [4] (25 ppm in growth medium) it was below 80%; in assay [5] (25 ppm in growth medium), above 80%; in assay [6] it was below 80%; in assay [8] it was below 80%. For the same molecule, the pest or weed control at 100 ppm (in assay [1]; in the assay with Erysiphe graminis—ERYSGT (setting [15])) was below 25% throughout. The “PUCCRT in vivo 1 Day Protectant” value in assay [2] (setting [13]) was “+ +”. For the same molecule, the “SEPTTR in vivo 1 Day Protectant” value in the assay on Septoria tritici—SEPTTR (setting [13]) is recorded as “+ +”. Besides, the “LEPTNO in vivo 1 Day Protectant” value in assay [7] (setting [15]) is “+ +”.
For `COc1ccnc(C(=O)NC2CC3CCC2C3)c1O` (stereo not drawn) [Compound 287], the inhibition at 25 ppm with Ustilago maydis (USTIMA) was below 80%; in assay [3], above 80%; in [4] (25 ppm in growth medium) it was below 80%; in [5] (25 ppm in growth medium), below 80%; in [6] it was below 80%; in assay [8] it was below 80%. Besides, the pest or weed control at 100 ppm in [1] is below 25%; in assay [2] (setting [9]), 25 to 74%; with Erysiphe graminis—ERYSGT (setting [10]) it was below 25%; with Septoria tritici—SEPTTR (setting [9]) it was 25 to 74%; in assay [7] (setting [10]) it was 25 to 74%.
`CCC(C)C(=O)O[C@H]1[C@H](C)OC(=O)[C@@H](NC(=O)c2nccc(OC)c2OC(C)=O)COC(=O)[C@@H]1Cc1ccccc1` (stereo partly drawn) [Compound 701]: the inhibition at 25 ppm was below 80% in the assay on Ustilago maydis (USTIMA); below 80% in [3]; above 80% in [4] (25 ppm in growth medium); above 80% in assay [5] (25 ppm in growth medium); below 80% in [6]; below 80% in assay [8]. For the same molecule, the pest or weed control at 100 ppm in assay [1] is below 25%. For the same molecule, the “PUCCRT in vivo 1 Day Protectant” value in [2] (setting [13]) is “+ +”. For the same molecule, the “ERYSGT in vivo 1 Day Protectant” value in the assay on Erysiphe graminis—ERYSGT (setting [15]) is recorded as “+ +”. The “SEPTTR in vivo 1 Day Protectant” value in the assay on Septoria tritici—SEPTTR (setting [13]) is “+ +”. Moreover, in assay [7] (setting [15]), the “LEPTNO in vivo 1 Day Protectant” value was “+ +”.
As to `COc1ccnc(C(=O)N[C@H]2COC(=O)[C@H](Cc3ccccc3)[C@@H](OC(=O)C(C)C)[C@H](C)OC2=O)c1OC(=O)C=C(C)C` [Compound 607], the inhibition at 25 ppm in the assay on Ustilago maydis (USTIMA) was below 80%; in assay [3], below 80%; in assay [4] (25 ppm in growth medium) it was below 80%; in assay [5] (25 ppm in growth medium) it was above 80%; in [6], below 80%; in assay [8], below 80%. For the same molecule, the pest or weed control at 100 ppm in assay [1] is below 25%; with Erysiphe graminis—ERYSGT (setting [15]), below 25%; in assay [7] (setting [15]), 25 to 74%. Besides, the “PUCCRT in vivo 1 Day Protectant” value in assay [2] (setting [13]) was “+ +”. Also, the “SEPTTR in vivo 1 Day Protectant” value in the assay on Septoria tritici—SEPTTR (setting [13]) is “+ +”.
`O=C(Nc1cccc(C(F)(F)F)c1)c1ncccc1O` [Compound 214]: the inhibition at 25 ppm (with Ustilago maydis (USTIMA); in [3]; in assay [4] (25 ppm in growth medium); in assay [5] (25 ppm in growth medium); in assay [6]; in [8]) was below 80% in each case. The pest or weed control at 100 ppm (in assay [1]; in [2] (setting [9]); with Erysiphe graminis—ERYSGT (setting [10]); in the assay on Septoria tritici—SEPTTR (setting [9]); in [7] (setting [10])) was below 25% throughout.
For the molecule `COc1ccnc(C(=O)Nc2ccc(Oc3ccc(C)cc3)cc2)c1O` [Compound 417], the inhibition at 25 ppm is below 80% with Ustilago maydis (USTIMA); below 80% in [3]; above 80% in assay [4] (25 ppm in growth medium); below 80% in assay [5] (25 ppm in growth medium); below 80% in assay [6]; above 80% in [8]. In addition, the pest or weed control at 100 ppm (in [1]; in [2] (setting [13]); with Erysiphe graminis—ERYSGT (setting [14]); in the assay with Septoria tritici—SEPTTR (setting [13])) was below 25% throughout. Moreover, the “LEPTNO in vivo 1 Day Protectant” value in [7] (setting [14]) was “+ +”.
In the case of `COc1ccnc(C(=O)NC2O[C@H](CO)[C@H]3OC(C)(C)O[C@@H]23)c1O` (stereo partly drawn) [Compound 329], the inhibition at 25 ppm (in the assay on Ustilago maydis (USTIMA); in assay [3]; in assay [4] (25 ppm in growth medium); in [5] (25 ppm in growth medium); in assay [6]; in assay [8]) was below 80% each time. Further, the pest or weed control at 100 ppm in [1] was below 25%; in assay [2] (setting [13]), 25 to 74%; in the assay on Erysiphe graminis—ERYSGT (setting [14]), below 25%; with Septoria tritici—SEPTTR (setting [13]), 25 to 74%; in [7] (setting [14]), 25 to 74%.

(Values after patent US6706740B2, “Fungicidal heterocyclic aromatic amides and their compositions, methods of use and preparation” (Dow AgroSciences LLC, priority 1999, dated 2004).)
